In ChEMBL document CHEMBL4118193, “1,2,3,4,6-Penta-O-galloyl-β-d-glucose suppresses colon cancer through induction of tumor suppressor” (Bioorg Med Chem Lett, 2018):
Active and inactive are the calls of the source. The calls are words filed in the database; no cut-off is given here.

What was measured:
HCT-116 [1] = experiment: Cell cycle arrest in human HCT116 cells assessed as accumulation at S phase at 10 uM after 48 hrs (reference value: 10.9%); type: functional
HCT-116 [2] = experiment: Induction of apoptosis in human HCT116 cells assessed as early apoptotic cells at 10 uM after 48 hrs by Annexin-V and dead cell assay (reference value: 1.70%); type: functional
HCT-116 [3] = experiment: Antiproliferative activity against human HCT116 cells at 1 to 10 uM after 48 hrs by CytoTox-96 non-radioactive assay; type: functional, cell-based
HT-29 [4] = experiment: Cell cycle arrest in human HT-29 cells assessed as accumulation at subG1 phase after 48 hrs; type: functional, cell-based
HT-29 [5] = experiment: Induction of apoptosis in human HT-29 cells assessed as DNA fragmentation at 1 to 10 uM after 48 hrs by ELISA; type: functional, cell-based
HCT-116 [6] = experiment: Cell cycle arrest in human HCT116 cells assessed as accumulation at subG1 phase after 48 hrs; type: functional, cell-based
HCT-116 [7] = experiment: Induction of apoptosis in human HCT116 cells assessed as cleaved caspase-3 protein level at 5 uM after 48 hrs by Western blot method relative to caspase-3; type: functional
HCT-116 [8] = experiment: Cell cycle arrest in human HCT116 cells assessed as accumulation at S phase at 1 uM after 48 hrs (reference value: 10.9%); type: functional
HT-29 [9] = experiment: Induction of apoptosis in human HT-29 cells assessed as p21 protein level at 1 uM after 48 hrs by Western blot method relative to beta-actin; type: functional
HT-29 [10] = experiment: Induction of apoptosis in human HT-29 cells assessed as caspase-3 protein level at 2.5 uM after 48 hrs by Western blot method relative to beta-actin; type: functional
HCT-116 [11] = experiment: Induction of apoptosis in human HCT116 cells assessed as in p21 protein level at 5 uM after 48 hrs by Western blot method relative to beta-actin; type: functional
HT-29 [12] = experiment: Induction of apoptosis in human HT-29 cells assessed as Bcl-2 protein level at 2.5 uM after 48 hrs by Western blot method relative to beta-actin; type: functional
HT-29 [13] = experiment: Cell cycle arrest in human HT-29 cells assessed as accumulation at G2/M phase at 2.5 uM after 48 hrs (reference value: 14.7%); type: functional
HCT-116 [14] = experiment: Cell cycle arrest in human HCT116 cells assessed as accumulation at G2/M phase at 1 uM after 48 hrs (reference value: 21.5%); type: functional
HCT-116 [15] = experiment: Cytotoxicity against human HCT116 cells at 1 to 10 uM after 48 hrs by CytoTox-96 non-radioactive assay; type: functional, cell-based
HT-29 [16] = experiment: Cell cycle arrest in human HT-29 cells assessed as accumulation at G0/G1 phase at 5 uM after 48 hrs (reference value: 53.9%); type: functional
HCT-116 [17] = experiment: Cell cycle arrest in human HCT116 cells assessed as accumulation at S phase at 2.5 uM after 48 hrs (reference value: 10.9%); type: functional
HCT-116 [18] = experiment: Induction of apoptosis in human HCT116 cells assessed as necrotic cells at 10 uM after 48 hrs by Annexin-V and dead cell assay (reference value: 0.10%); type: functional
HT-29 [19] = experiment: Induction of apoptosis in human HT-29 cells assessed as cyclin E protein level at 5 uM after 48 hrs by Western blot method relative to beta-actin; type: functional
HCT-116 [20] = experiment: Induction of apoptosis in human HCT116 cells assessed as CDK2 protein level at 5 uM after 48 hrs by Western blot method relative to beta-actin; type: functional
CCD-18Co = experiment: Cytotoxicity against human CCD-18Co cells at 1 to 10 uM after 48 hrs by CytoTox-96 non-radioactive assay; type: cell-based
HT-29 [21] = experiment: Induction of apoptosis in human HT-29 cells assessed as caspase-3 protein level at 1 uM after 48 hrs by Western blot method relative to beta-actin; type: functional
HT-29 [22] = experiment: Induction of apoptosis in human HT-29 cells after 48 hrs by Annexin-V and dead cell assay; type: functional, cell-based
HT-29 [23] = experiment: Induction of apoptosis in human HT-29 cells assessed as cleaved caspase-3 protein level at 10 uM after 48 hrs by Western blot method relative to caspase-3; type: functional
HCT-116 [24] = experiment: Induction of apoptosis in human HCT116 cells assessed as late apoptotic cells at 2.5 uM after 48 hrs by Annexin-V and dead cell assay (reference value: 1.45%); type: functional
HCT-116 [25] = experiment: Induction of apoptosis in human HCT116 cells assessed as Bcl-2 protein level at 1 uM after 48 hrs by Western blot method relative to beta-actin; type: functional
HT-29 [26] = experiment: Anticlonogenic activity against human HT-29 cells assessed as inhibition of colony formation after 4 to 5 days by crystal violet staining-based assay; type: functional, cell-based
HT-29 [27] = experiment: Induction of apoptosis in human HT-29 cells assessed as caspase-3 protein level at 5 uM after 48 hrs by Western blot method relative to beta-actin; type: functional
HCT-116 [28] = experiment: Induction of apoptosis in human HCT116 cells assessed as cyclin E protein level at 5 uM after 48 hrs by Western blot method relative to beta-actin; type: functional
HCT-116 [29] = experiment: Induction of apoptosis in human HCT116 cells assessed as CDK2 protein level at 1 uM after 48 hrs by Western blot method relative to beta-actin; type: functional
HCT-116 [30] = experiment: Induction of apoptosis in human HCT116 cells assessed as p53 protein level at 1 uM after 48 hrs by Western blot method relative to beta-actin; type: functional
HCT-116 [31] = experiment: Induction of apoptosis in human HCT116 cells assessed as caspase-3 protein level at 2.5 uM after 48 hrs by Western blot method relative to beta-actin; type: functional
HT-29 [32] = experiment: Cell cycle arrest in human HT-29 cells assessed as accumulation at G0/G1 phase at 2.5 uM after 48 hrs (reference value: 53.9%); type: functional
HT-29 [33] = experiment: Induction of apoptosis in human HT-29 cells assessed as cyclin E protein level at 10 uM after 48 hrs by Western blot method relative to beta-actin; type: functional
HCT-116 [34] = experiment: Induction of apoptosis in human HCT116 cells assessed as Bcl-2 protein level at 2.5 uM after 48 hrs by Western blot method relative to beta-actin; type: functional
HCT-116 [35] = experiment: Cell cycle arrest in human HCT116 cells assessed as accumulation at G0/G1 phase at 1 uM after 48 hrs (reference value: 38.5%); type: functional
HT-29 [36] = experiment: Induction of apoptosis in human HT-29 cells assessed as Bcl-2 protein level at 5 uM after 48 hrs by Western blot method relative to beta-actin; type: functional
HT-29 [37] = experiment: Cell cycle arrest in human HT-29 cells assessed as accumulation at G0/G1 phase at 10 uM after 48 hrs (reference value: 53.9%); type: functional
HCT-116 [38] = experiment: Induction of apoptosis in human HCT116 cells assessed as in p53 protein level at 2.5 uM after 48 hrs by Western blot method relative to beta-actin; type: functional
HT-29 [39] = experiment: Induction of apoptosis in human HT-29 cells assessed as p21 protein level at 10 uM after 48 hrs by Western blot method relative to beta-actin; type: functional
HCT-116 [40] = experiment: Cell cycle arrest in human HCT116 cells assessed as accumulation at G0/G1 phase at 10 uM after 48 hrs (reference value: 38.5%); type: functional
HCT-116 [41] = experiment: Induction of apoptosis in human HCT116 cells assessed as cleaved caspase-3 protein level at 10 uM after 48 hrs by Western blot method relative to caspase-3; type: functional

With O=C(OC[C@H]1O[C@@H](OC(=O)c2cc(O)c(O)c(O)c2)[C@H](OC(=O)c2cc(O)c(O)c(O)c2)[C@@H](OC(=O)c2cc(O)c(O)c(O)c2)[C@@H]1OC(=O)c1cc(O)c(O)c(O)c1)c1cc(O)c(O)c(O)c1 [PENTAGALLOYL GLUCOSE] the Activity (HCT-116 [1]) was 11.8%, the Activity (HCT-116 [2]) was 3.2% and the Activity (HCT-116 [3]) was “Active”. For the same compound, the Activity (HT-29 [4]) was “Dose-dependent effect”, the Activity (HT-29 [5]) was “Active” and the Activity (HCT-116 [6]) was “Dose-dependent effect”. For the same compound, the “fold change (FC)” value (HCT-116 [7]) was 2, the Activity (HCT-116 [8]) was 9.8% and the “fold change (FC)” value (HT-29 [9]) was 2.4. The “fold change (FC)” value (HT-29 [10]) was 4.7, the “fold change (FC)” value (HCT-116 [11]) was 0.7 and the “fold change (FC)” value (HT-29 [12]) was 0.3. The Activity (HT-29 [13]) was 20.8%, the Activity (HCT-116 [14]) was 18.1% and the Activity (HCT-116 [15]) was “Active”. The Activity (HT-29 [16]) was 43.9%, the Activity (HCT-116 [17]) was 9% and the Activity (HCT-116 [18]) was 0.25%. The “fold change (FC)” value (HT-29 [19]) was 0.8, the “fold change (FC)” value (HCT-116 [20]) was 0.4 and the Activity (CCD-18Co) was “Non-Toxic”. For the same compound, the “fold change (FC)” value (HT-29 [21]) was 1.6, the Activity (HT-29 [22]) was “Dose-dependent effect” and the “fold change (FC)” value (HT-29 [23]) was 5.7. The Activity (HCT-116 [24]) was 1%, the “fold change (FC)” value (HCT-116 [25]) was 1.3 and the Activity (HT-29 [26]) was “Dose-dependent effect”. For the same compound, the “fold change (FC)” value (HT-29 [27]) was 5.9, the “fold change (FC)” value (HCT-116 [28]) was 0.6 and the “fold change (FC)” value (HCT-116 [29]) was 0.9. The “fold change (FC)” value (HCT-116 [30]) was 1.8, the “fold change (FC)” value (HCT-116 [31]) was 109.9 and the Activity (HT-29 [32]) was 47.2%. The “fold change (FC)” value (HT-29 [33]) was 0.1, the “fold change (FC)” value (HCT-116 [34]) was 1.8 and the Activity (HCT-116 [35]) was 37.5%. For the same compound, the “fold change (FC)” value (HT-29 [36]) was 0.4, the Activity (HT-29 [37]) was 37.3% and the “fold change (FC)” value (HCT-116 [38]) was 2.5. For the same compound, the “fold change (FC)” value (HT-29 [39]) was 0.1, the Activity (HCT-116 [40]) was 32.2% and the “fold change (FC)” value (HCT-116 [41]) was 1.7.
